Data published in patent US20250214991A1 (Oncopia Therapeutics, Inc. d/b/a/ SK Life Science Labs, priority 2022, published 2025).

Key:
[1] = molecular target: IKZF2 (Homo sapiens (Human), UniProt Q96SW2+Q9UKS7); test: In vitro IKZF2 FACS Assay in Jurkat cells; assay type: cell-based; details: 24 hrs; for DC50: half maximal degradation concentration; for Dmax: maximal degradation percentage
Protocol: In vitro IKZF2 FACS Assay
DC50, A: <1 nM; B: 1-10 nM; C: 10-100 nM; D: 100-1000 nM; E: >1000 nM. Dmax, A: >80%; B: 60-80%; C: 40-60%; D: 20-40%; E: <20%.

[2] = molecular target: CRBN/DDB1 (Homo sapiens (Human), UniProt Q96SW2); test: IC50 measurements for binding to CRBN/DDB1 (HTRF); details: His tagged CRBN+DDB, Cy5-labeled Thalidomide probe, one hour
Method in brief: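 Serially diluted compounds compete with a Cy5-labeled thalidomide tracer (60 nM) for His-tagged CRBN-DDB1 (2 nM), detected via anti-6His Tb cryptate (0.4 nM); buffer HEPES pH 7.5 with TCEP, Brij-35, NaCl, BSA. One-hour room-temperature incubation, HTRF signal read, IC50 by four-parameter curve.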

Sequence of IKZF2 (Q9UKS7 whole entry): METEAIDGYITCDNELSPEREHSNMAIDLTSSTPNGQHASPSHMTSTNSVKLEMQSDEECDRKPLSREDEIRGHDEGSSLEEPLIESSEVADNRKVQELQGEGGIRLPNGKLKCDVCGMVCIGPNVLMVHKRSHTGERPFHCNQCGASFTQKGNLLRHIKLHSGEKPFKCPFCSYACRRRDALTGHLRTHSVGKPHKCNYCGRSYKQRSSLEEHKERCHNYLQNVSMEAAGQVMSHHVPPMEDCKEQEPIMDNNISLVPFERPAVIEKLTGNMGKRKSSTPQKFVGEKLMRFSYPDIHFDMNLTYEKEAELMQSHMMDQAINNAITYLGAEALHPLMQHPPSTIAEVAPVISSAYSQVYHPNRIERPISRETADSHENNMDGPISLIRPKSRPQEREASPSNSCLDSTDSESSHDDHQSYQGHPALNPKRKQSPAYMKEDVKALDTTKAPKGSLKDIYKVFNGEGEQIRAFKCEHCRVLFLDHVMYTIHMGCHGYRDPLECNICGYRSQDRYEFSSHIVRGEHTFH
Sequence of IKZF2 (Q96SW2 whole entry): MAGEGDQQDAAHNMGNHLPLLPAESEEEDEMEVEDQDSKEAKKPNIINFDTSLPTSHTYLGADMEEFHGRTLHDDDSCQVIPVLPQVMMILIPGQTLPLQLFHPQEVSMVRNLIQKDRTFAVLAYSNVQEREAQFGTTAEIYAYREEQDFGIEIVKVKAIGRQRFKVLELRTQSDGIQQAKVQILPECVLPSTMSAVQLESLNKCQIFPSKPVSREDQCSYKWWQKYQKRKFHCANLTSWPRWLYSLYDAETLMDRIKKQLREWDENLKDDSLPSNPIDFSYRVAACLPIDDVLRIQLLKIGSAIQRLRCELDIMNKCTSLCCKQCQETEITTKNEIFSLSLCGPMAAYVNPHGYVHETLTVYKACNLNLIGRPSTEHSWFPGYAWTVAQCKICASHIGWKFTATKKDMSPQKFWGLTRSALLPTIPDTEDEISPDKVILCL
Sequence of IKZF2 (Q16531 2-1140 partner): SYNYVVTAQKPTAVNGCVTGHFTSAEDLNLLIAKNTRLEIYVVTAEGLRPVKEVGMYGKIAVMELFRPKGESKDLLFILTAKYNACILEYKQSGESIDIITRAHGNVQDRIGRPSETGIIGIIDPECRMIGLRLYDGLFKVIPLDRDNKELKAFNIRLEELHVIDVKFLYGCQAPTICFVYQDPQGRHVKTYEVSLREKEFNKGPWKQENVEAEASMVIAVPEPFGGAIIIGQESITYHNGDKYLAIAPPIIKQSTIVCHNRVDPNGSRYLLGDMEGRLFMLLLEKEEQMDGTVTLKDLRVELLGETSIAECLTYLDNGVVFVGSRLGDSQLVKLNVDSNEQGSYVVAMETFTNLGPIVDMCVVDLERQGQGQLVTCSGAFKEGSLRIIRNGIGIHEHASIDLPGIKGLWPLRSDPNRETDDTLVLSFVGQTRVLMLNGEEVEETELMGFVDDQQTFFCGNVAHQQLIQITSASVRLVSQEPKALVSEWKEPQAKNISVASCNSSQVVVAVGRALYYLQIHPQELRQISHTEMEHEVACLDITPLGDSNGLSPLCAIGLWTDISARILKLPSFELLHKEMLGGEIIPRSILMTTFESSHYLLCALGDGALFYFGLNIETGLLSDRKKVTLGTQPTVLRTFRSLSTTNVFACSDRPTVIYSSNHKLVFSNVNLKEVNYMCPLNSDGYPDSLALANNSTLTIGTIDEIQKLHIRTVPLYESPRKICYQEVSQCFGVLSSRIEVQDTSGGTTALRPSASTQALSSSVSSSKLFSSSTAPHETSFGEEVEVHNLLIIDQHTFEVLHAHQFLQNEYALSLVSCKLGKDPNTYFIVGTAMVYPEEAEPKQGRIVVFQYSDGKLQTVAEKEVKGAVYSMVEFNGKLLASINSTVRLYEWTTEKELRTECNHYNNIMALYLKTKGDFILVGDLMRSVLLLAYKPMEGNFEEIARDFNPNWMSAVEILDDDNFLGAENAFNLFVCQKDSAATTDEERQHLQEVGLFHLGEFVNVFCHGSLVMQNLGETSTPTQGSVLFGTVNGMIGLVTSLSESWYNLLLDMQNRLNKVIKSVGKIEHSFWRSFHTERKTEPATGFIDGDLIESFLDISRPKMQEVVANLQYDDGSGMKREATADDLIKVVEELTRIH
Sequence of CRBN/DDB1 (Q96SW2 whole entry, species assumed): as the sequence (Q96SW2 whole entry) above
Sequence of CRBN/DDB1 (Q16531 whole entry partner, species assumed): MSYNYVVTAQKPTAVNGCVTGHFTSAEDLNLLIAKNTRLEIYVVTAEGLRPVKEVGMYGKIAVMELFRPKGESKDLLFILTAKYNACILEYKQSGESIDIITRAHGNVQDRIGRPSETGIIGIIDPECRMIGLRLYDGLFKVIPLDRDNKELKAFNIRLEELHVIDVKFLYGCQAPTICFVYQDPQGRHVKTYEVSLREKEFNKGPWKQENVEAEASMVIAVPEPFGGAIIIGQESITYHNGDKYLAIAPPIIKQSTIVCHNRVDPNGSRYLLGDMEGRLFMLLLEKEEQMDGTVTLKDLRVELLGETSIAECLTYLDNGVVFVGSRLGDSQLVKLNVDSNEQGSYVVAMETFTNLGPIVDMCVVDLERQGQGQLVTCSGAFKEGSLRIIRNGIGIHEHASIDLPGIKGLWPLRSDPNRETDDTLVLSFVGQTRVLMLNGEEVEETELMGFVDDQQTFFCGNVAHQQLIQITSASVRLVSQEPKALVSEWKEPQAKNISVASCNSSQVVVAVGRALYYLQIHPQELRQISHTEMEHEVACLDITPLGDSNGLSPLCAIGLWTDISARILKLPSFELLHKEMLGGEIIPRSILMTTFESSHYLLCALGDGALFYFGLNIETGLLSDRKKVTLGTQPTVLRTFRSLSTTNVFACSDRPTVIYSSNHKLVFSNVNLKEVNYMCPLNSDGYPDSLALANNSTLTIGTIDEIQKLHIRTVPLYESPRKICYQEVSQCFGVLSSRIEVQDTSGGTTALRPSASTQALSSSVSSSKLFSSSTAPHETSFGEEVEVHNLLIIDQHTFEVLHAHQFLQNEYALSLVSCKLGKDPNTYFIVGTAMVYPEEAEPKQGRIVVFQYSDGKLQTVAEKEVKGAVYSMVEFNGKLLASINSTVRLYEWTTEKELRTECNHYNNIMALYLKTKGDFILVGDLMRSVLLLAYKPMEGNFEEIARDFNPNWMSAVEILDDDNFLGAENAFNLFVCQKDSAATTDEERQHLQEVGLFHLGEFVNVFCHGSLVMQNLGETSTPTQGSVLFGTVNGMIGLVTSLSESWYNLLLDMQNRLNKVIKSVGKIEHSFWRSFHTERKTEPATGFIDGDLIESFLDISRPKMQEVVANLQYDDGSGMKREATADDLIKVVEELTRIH

What does the source list for `C[C@@H](c1ccccc1)N(C)Cc1cc(-c2ccc3c(c2)CN(C2CCC(=O)NC2=O)C3=O)n2cncc2c1` (single isomer, unassigned) [Example 15, 3-(5-(7-((methyl ((S*)-1-phenylethyl)amino)methyl)imidazo[1,5-a]pyridin-5-yl)-1-oxoisoindolin-2-yl) piperidine-2,6-dione]?
DC50 [1]: 10 to 100 nM; Dmax [1]: 20 to 40%; IC50 [2]: 1000 to 5000 nM

What does the source list for `Cn1cnc2c(-c3ccc4c(c3)CN(C3CCC(=O)NC3=O)C4=O)cc(CNCCc3ccccc3Cl)cc21` (stereo not drawn) [Example 51, 3-(5-(6-(((2-chlorophenethyl)amino)methyl)-1-methyl-1H-benzo[d]imidazol-4-yl)-1-oxoisoindolin-2-yl) piperidine-2,6-dione]?
DC50 [1]: > 1000 nM; Dmax [1]: 20 to 40%; IC50 [2]: 100 to 500 nM

For `CC(C)(NCc1cc(-c2ccc3c(c2)CN(C2CCC(=O)NC2=O)C3=O)n2cncc2c1)c1ccccc1` (stereo not drawn) [Example 18, 3-(1-oxo-5-(7-(((2-phenylpropan-2-yl)amino)methyl)imidazo[1,5-a]pyridin-5-yl)isoindolin-2-yl) piperidine-2,6-dione], which DC50 [1] is on record?
The DC50 was 100 to 1000 nM.

And the Dmax [1]?
Its Dmax is 40 to 60%.

And the IC50 [2]?
The IC50 was 500 to 1000 nM.

Which results are given for `C[C@H](c1ccccc1)N(C)Cc1cc(-c2ccc3c(c2)CN(C2CCC(=O)NC2=O)C3=O)n2cncc2c1` (single isomer, unassigned) [Example 17, 3-(5-(7-((methyl ((R*)-1-phenylethyl)amino)methyl)imidazo[1,5-a]pyridin-5-yl)-1-oxoisoindolin-2-yl) piperidine-2,6-dione]?
DC50 [1]: 10 to 100 nM; Dmax [1]: 20 to 40%; IC50 [2]: 1000 to 5000 nM

`O=C1CCC(N2Cc3c(ccc(-c4cc(CN5CCCC5)cc5cncn45)c3F)C2=O)C(=O)N1` (stereo not drawn) [Example 27, 3-(4-fluoro-1-oxo-5-(7-(pyrrolidin-1-ylmethyl)imidazo[1,5-a]pyridin-5-yl)isoindolin-2-yl) piperidine-2,6-dione] was tested. Which DC50 [1] did it give?
Its DC50 is 10 to 100 nM.

What about the Dmax [1] of the same compound?
Its Dmax is 40 to 60%.

What about the IC50 [2] of the same compound?
The IC50 was 500 to 1000 nM.

How did the DC50 [1] turn out when `C[C@H](NCc1cc(-c2ccc3c(c2)CN(C2CCC(=O)NC2=O)C3=O)n2cncc2c1)c1ccccc1` (single isomer, unassigned) [Example 14, 3-(1-oxo-5-(7-((((S*)-1-phenylethyl)amino)methyl)imidazo[1,5-a]pyridin-5-yl)isoindolin-2-yl) piperidine-2,6-dione] was run?
Its DC50 is 10 to 100 nM.

And the Dmax [1]?
The Dmax was 40 to 60%.

What about the IC50 [2] of the same compound?
Its IC50 is 100 to 500 nM.

What does the source list for `O=C1CCC(N2Cc3cc(-c4cc(CN5CC6COCC(C6)C5)cc5cncn45)ccc3C2=O)C(=O)N1` (stereo not drawn) [Example 11]?
DC50 [1]: 100 to 1000 nM; Dmax [1]: 40 to 60%; IC50 [2]: 500 to 1000 nM

Which DC50 [1] does the source give for `COc1c(-c2cc(CN3CCCC3)cc3cncn23)ccc2c1CN(C1CCC(=O)NC1=O)C2=O` (stereo not drawn) [Example 31, 3-(4-methoxy-1-oxo-5-(7-(pyrrolidin-1-ylmethyl)imidazo[1,5-a]pyridin-5-yl)isoindolin-2-yl) piperidine-2,6-dione] here?
Its DC50 is over 1000 nM.

What about the Dmax [1] of the same compound?
The Dmax was under 20%.

And the IC50 [2]?
The IC50 was 100 to 500 nM.

Which results are given for `O=C1CCC(N2Cc3cc(-c4ncc5ccc(CN6CCCC6)cn45)ccc3C2=O)C(=O)N1` (stereo not drawn) [Example 53, 3-(1-oxo-5-(6-(pyrrolidin-1-ylmethyl)imidazo[1,5-a]pyridin-3-yl)isoindolin-2-yl) piperidine-2,6-dione]?
DC50 [1]: > 1000 nM; Dmax [1]: 20 to 40%; IC50 [2]: 5000 to 10000 nM

For `O=C1CCC(N2Cc3cc(-c4cc(CN5CCC5)cc5cncn45)ccc3C2=O)C(=O)N1` (stereo not drawn) [Example 2, 3-(5-(7-(azetidin-1-ylmethyl)imidazo[1,5-a]pyridin-5-yl)-1-oxoisoindolin-2-yl) piperidine-2,6-dione], which DC50 [1] is on record?
Its DC50 is 100 to 1000 nM.

What about the Dmax [1] of the same compound?
Its Dmax is 40 to 60%.

And the IC50 [2]?
The IC50 was 100 to 500 nM.

Which DC50 [1] does the source give for `O=C1CCC(N2Cc3cc(-c4cc(CNCc5cccc6ccccc56)cc5cncn45)ccc3C2=O)C(=O)N1` (stereo not drawn) [Example 24, 3-(5-(7-(((naphthalen-1-ylmethyl)amino)methyl)imidazo[1,5-a]pyridin-5-yl)-1-oxoisoindolin-2-yl) piperidine-2,6-dione] here?
The DC50 was 10 to 100 nM.

What about the Dmax [1] of the same compound?
Its Dmax is 20 to 40%.

And the IC50 [2]?
The IC50 was 1000 to 5000 nM.

For `O=C1CCC(N2Cc3cc(-c4cc(CNCc5ccccc5)cc5cncn45)ccc3C2=O)C(=O)N1` (stereo not drawn) [Example 13, 3-(5-(7-((benzylamino)methyl)imidazo[1,5-a]pyridin-5-yl)-1-oxoisoindolin-2-yl) piperidine-2,6-dione], which DC50 [1] is on record?
Its DC50 is 10 to 100 nM.

And the Dmax [1]?
The Dmax was 20 to 40%.

What about the IC50 [2] of the same compound?
The IC50 was 100 to 500 nM.

For `C[C@@H](NCc1cc(-c2ccc3c(c2)CN(C2CCC(=O)NC2=O)C3=O)n2cncc2c1)c1ccccc1` (single isomer, unassigned) [Example 16, 3-(1-oxo-5-(7-((((R*)-1-phenylethyl)amino)methyl)imidazo[1,5-a]pyridin-5-yl)isoindolin-2-yl) piperidine-2,6-dione], which DC50 [1] is on record?
The DC50 was 10 to 100 nM.

And the Dmax [1]?
Its Dmax is 40 to 60%.

And the IC50 [2]?
Its IC50 is 500 to 1000 nM.

`O=C1CCC(N2Cc3cc(-c4cc(CN5CCC6(CCC6)CC5)cc5cncn45)ccc3C2=O)C(=O)N1` (stereo not drawn) [Example 9, 3-(5-(7-((7-azaspiro[3.5]nonan-7-yl)methyl)imidazo[1,5-a]pyridin-5-yl)-1-oxoisoindolin-2-yl) piperidine-2,6-dione] was tested. Which DC50 [1] did it give?
The DC50 was 10 to 100 nM.

And the Dmax [1]?
Its Dmax is 40 to 60%.

What about the IC50 [2] of the same compound?
The IC50 was 500 to 1000 nM.

How did the DC50 [1] turn out when `CC(NCc1cc(-c2ccc3c(c2)CN(C2CCC(=O)NC2=O)C3=O)n2cncc2c1)c1ccccc1Cl` (stereo not drawn) [Example 23, 3-(5-(7-(((1-(2-chlorophenyl)ethyl)amino)methyl)imidazo[1,5-a]pyridin-5-yl)-1-oxoisoindolin-2-yl) piperidine-2,6-dione] was run?
Its DC50 is 10 to 100 nM.

And the Dmax [1]?
Its Dmax is 20 to 40%.

And the IC50 [2]?
Its IC50 is 1000 to 5000 nM.

What does the source list for `CN(Cc1cc(-c2ccc3c(c2)CN(C2CCC(=O)NC2=O)C3=O)n2cncc2c1)C(C)(C)c1ccccc1` (stereo not drawn) [Example 19, 3-(5-(7-((methyl (2-phenylpropan-2-yl)amino)methyl)imidazo[1,5-a]pyridin-5-yl)-1-oxoisoindolin-2-yl) piperidine-2,6-dione]?
DC50 [1]: 100 to 1000 nM; Dmax [1]: 20 to 40%; IC50 [2]: 1000 to 5000 nM

How did the DC50 [1] turn out when `Cc1ccc(CCNCc2cc(-c3ccc4c(c3)CN(C3CCC(=O)NC3=O)C4=O)n3cncc3c2)cc1Cl` (stereo not drawn) [Example 22] was run?
The DC50 was over 1000 nM.

And the Dmax [1]?
Its Dmax is 20 to 40%.

And the IC50 [2]?
The IC50 was 1000 to 5000 nM.

Which results are given for `Cn1ccc2cccc(CNCc3cc(-c4ccc5c(c4)CN(C4CCC(=O)NC4=O)C5=O)n4cncc4c3)c21` (stereo not drawn) [Example 25]?
DC50 [1]: > 1000 nM; Dmax [1]: < 20%; IC50 [2]: 100 to 500 nM

What does the source list for `O=C1CCC(N2Cc3cc(-c4cc(CN5CC6CC6C5)cc5cncn45)ccc3C2=O)C(=O)N1` (stereo not drawn) [Example 7, 3-(5-(7-((3-azabicyclo[3.1.0]hexan-3-yl)methyl)imidazo[1,5-a]pyridin-5-yl)-1-oxoisoindolin-2-yl) piperidine-2,6-dione]?
DC50 [1]: 10 to 100 nM; Dmax [1]: 40 to 60%; IC50 [2]: 500 to 1000 nM

What does the source list for `CC1CCCN(Cc2cc(-c3ccc4c(c3)CN(C3CCC(=O)NC3=O)C4=O)n3cncc3c2)C1` (stereo not drawn) [Example 5, 3-(5-(7-((3-methylpiperidin-1-yl)methyl)imidazo[1,5-a]pyridin-5-yl)-1-oxoisoindolin-2-yl) piperidine-2,6-dione]?
DC50 [1]: 10 to 100 nM; Dmax [1]: 40 to 60%; IC50 [2]: 1000 to 5000 nM

`O=C1CCC(N2Cc3cc(-c4cc(CN5CCOCC5)cc5cncn45)ccc3C2=O)C(=O)N1` (stereo not drawn) [Example 4, 3-(5-(7-(morpholinomethyl)imidazo[1,5-a]pyridin-5-yl)-1-oxoisoindolin-2-yl) piperidine-2,6-dione] was tested. Which DC50 [1] did it give?
The DC50 was over 1000 nM.

What about the Dmax [1] of the same compound?
Its Dmax is 20 to 40%.

What about the IC50 [2] of the same compound?
Its IC50 is 1000 to 5000 nM.
